Columns and labels:
Phaedon cochleariae = Phaedon cochleariae test, dipped cabbage leaves
Plutella xylostella = Plutella xylostella test, dipped cabbage leaves; type: in vivo; conditions: after 6 d
Alternaria mali = Alternaria mali test (in vitro)/microtitre plates; type: cell-based; conditions: 3 ppm, after 4 d
Protocol: (§1) The microtest is carried out in microtitre plates using potato dextrose broth PDB) as liquid test medium. The active compounds are applied as technical-grade a.i., dissolved in acetone. A spore suspension of Alternaria mali is used for inoculation. After 4 days of incubation in the dark and with shaking (10 Hz), the transparency in each filled cavity of the microtitre plates is determined with the aid of a spectrophotometer.
(§2) 0% means an efficacy which corresponds to the growth in the controls, whereas an efficacy of 100% means that no fungal growth is observed.

Myzus persicae = Myzus persicae test, dipped cabbage leaves; type: in vivo; conditions: 100 ppm, after 6 d
Protocol: The determined kill rates are calculated using Colby's formula (see sheet 1).

Botrytis cinerea = Botrytis cinerea test (in vitro)/microtitre plates; type: cell-based; conditions: 3 ppm, after 5 d
Protocol: as §1, with “(PDB)” for “PDB)”, “Botrytis cinerea” for “Alternaria mali”, “5” for “4”
as §2

## CS/C(C)=N\OC(=O)N(C)SN(C)C(=O)O/N=C(\C)SC [(3.1.2) thiodicarb, thiodicarb]
Phaedon cochleariae; 100 ppm, after 4 d
  Kill rate in % after d, found: 0%

## spinosad [(5.1.1) spinosad]
Phaedon cochleariae; 0.8 ppm, after 6 d
  Kill rate in % after d, found: 80%

## CN/C(=N\[N+](=O)[O-])NCc1cnc(Cl)s1 [(2.1.1) clothianidin, clothianidin]
Plutella xylostella; 20 ppm
  Kill rate in % after d, found: 20%
Alternaria mali
  Kill rate in % after d, found: 8%
Phaedon cochleariae; 0.8 ppm, after 6 d
  Kill rate in % after d, found: 0%

## N#Cc1nn(-c2c(Cl)cc(C(F)(F)F)cc2Cl)c(N)c1[S+]([O-])C(F)(F)F (stereo not drawn) [(6.2.1) fipronil, fipronil]
Myzus persicae
  Kill rate in % after d, found: 65%

## Cc1nn(C)c(F)c1C(=O)Nc1ccccc1C(C)CC(C)C (stereo not drawn) [(1-2), N-[2-(1,3-dimethylbutyl)phenyl]-5-fluoro-1,3-dimethyl-1H-pyrazole-4-carboxamide]
Myzus persicae
  Kill rate in % after d, found: 0%
Alternaria mali
  Kill rate in % after d, found: 48%
Phaedon cochleariae; 100 ppm, after 4 d
  Kill rate in % after d, found: 0%
Phaedon cochleariae; 100 ppm, after 6 d
  Kill rate in % after d, found: 0%
Botrytis cinerea
  Efficacy in % after d, found: 16%

## CNC(=O)Oc1cc(C)c(SC)c(C)c1 [(3.1.1) methiocarb, methiocarb]
Myzus persicae
  Kill rate in % after d, found: 0%

## O=[N+]([O-])NC1=NCCN1Cc1ccc(Cl)nc1 [(2.1.2) imidacloprid, imidacloprid]
Plutella xylostella; 4 ppm
  Kill rate in % after d, found: 20%
Phaedon cochleariae; 0.8 ppm, after 6 d
  Kill rate in % after d, found: 40%
Botrytis cinerea
  Efficacy in % after d, found: 3%
